Paper PMC3258254, “Intestinal Absorption and First-Pass Metabolism of Polyphenol Compounds in Rat and Their Transport Dynamics in Caco-2 Cells” (PLoS ONE, 2012)

Key:
Caco-2 cells [1] = experiment: Cellular uptake / intracellular accumulation in Caco-2 cells, with or without transporter inhibitors; format: in vitro ADME, human; settings: for Intracellular accumulation / uptake in the presence of phloridzin: 50 µM phloridzin (SGLT1 inhibitor); for Time of maximum intracellular accumulation (given as Cmax): 50 µM, parent compound in Caco-2 cells; for Intracellular accumulation after pre-treatment with cyclosporine A: 100 µM cyclosporine A (P-glycoprotein and MRP2 inhibitor); for Intracellular accumulation after pre-treatment with verapamil: 100 µM verapamil (P-glycoprotein inhibitor)
Method: Caco-2 cells, derived from human colorectal adenocarcinoma cells, were obtained from the American Type Culture Collection (Manassas, VA, USA) and maintained in plastic culture flasks (Corning Costar, Cambridge, MA, USA). […] Cells were subcultured to 80% confluency. For all cellular uptake studies of polyphenols, Caco-2 cells were seeded at a cell density of 6×10^5 cells•cm^–2 on six-well plastic plates. Cells were used 14 to 21 days after seeding. The culture medium was replaced with fresh medium 24 h before the uptake experiments. Polyphenol compounds (50 µM) were added to evaluate the uptake characteristics of Caco-2 cells. To determine the intracellular concentration of polyphenols, the cell lysate was obtained by subjecting the drug-containing cells to three freeze-thaw cycles in liquid nitrogen. Protein concentrations were measured using the Bradford method with bovine serum albumin as a standard. For transport experiments, Caco-2 cells were seeded at a cell density of 1×10^5 cells•cm^−2 on Millicell Cell Culture Inserts (Millipore, Billerica, MA, USA). […] The culture medium was replaced with fresh medium 24 h before the transport experiments. Polyphenol compounds (50 µM) were added from the apical or basolateral side to evaluate the transport characteristics of the cells. […] The samples were collected and stored at −70°C until needed for analysis.

Caco-2 cells [2] = experiment: Transport (permeability, Papp) across Caco-2 cell monolayers; format: in vitro ADME, human; settings: 50 µM, parent compound
Method: (§1) Caco-2 cells, derived from human colorectal adenocarcinoma cells, were obtained from the American Type Culture Collection (Manassas, VA, USA) and maintained in plastic culture flasks (Corning Costar, Cambridge, MA, USA). The cells were cultured in Dulbecco's modified Eagle's minimal essential medium supplemented with 1% non-essential amino acids, 1% L-glutamine, 20% foetal bovine serum, 100 U•mL^–1 penicillin, and 0.1 mg•mL^–1 streptomycin, and were grown in a humidified atmosphere of 5% CO2 in air at 37°C (Figure S1). Cells were subcultured to 80% confluency.
(§2) For transport experiments, Caco-2 cells were seeded at a cell density of 1×10^5 cells•cm^−2 on Millicell Cell Culture Inserts (Millipore, Billerica, MA, USA). Cells were used 19 to 21 days after seeding, by which time the transepithelial electrical resistance value was >300 Ω•cm^–2. The culture medium was replaced with fresh medium 24 h before the transport experiments. Polyphenol compounds (50 µM) were added from the apical or basolateral side to evaluate the transport characteristics of the cells. To investigate the role of different transporters, Caco-2 cells were preincubated with verapamil (an inhibitor of P-glycoprotein), cyclosporine A (a dual inhibitor of P-glycoprotein and multi-drug resistance protein 2, MRP2), or phloridzin, (a selective inhibitor of sodium/glucose cotransporter 1, SGLT1) to investigate the absorptive and transport changes of the polyphenol compounds [19]–[20]. The samples were collected and stored at −70°C until needed for analysis.

[3] = as above; format: in vitro ADME, human; settings: human, mean ± SD; for Papp A→B at 50 µM: Caco-2, apical to basolateral, n = 6, read-out: Papp AP to BL; for Papp B→A at 50 µM: Caco-2, basolateral to apical, n = 6, read-out: Papp BL to AP
Method: as §1, §2

[4] = Pharmacokinetics in rat plasma after oral administration of polyphenols; settings: for AUC / Cmax: 50 µmol•kg^–1; for K / T1/2Ke / Tpeak: rat plasma, oral 50 µmol•kg^–1, mean ± SD, n = 6
Excerpt: Male Sprague-Dawley rats (70–110 days old) weighing between 270 g and 320 g were obtained from the experimental animal centre of the Fourth Military Medical University, Xi'an, China. The rats were subjected to fasting overnight, with free access to water before the day of experiment.
The polyphenol compounds solution, prepared in 0.5% sodium carboxyl methyl cellulose (CMC-Na), were orally administrated to the rats using a dose of 50 µmol•kg^–1. Blood samples were collected from the vena abdominalis under light ether anaesthesia at different times (0.08, 0.17, 0.5, 1, 2, 4, 8, 12, 16, 24 and 36 h). The samples were immediately centrifuged for 10 min at 7185 g to obtain plasma, which was then frozen at −70°C until required for analysis.
Metabolite samples were analyzed after treatment with β-glucuronidase or sulphatase [21]–[22]. The samples (0.2 mL) were extracted with 1 mL ethyl acetate by vigorous vortex mixing for 1 min, then centrifuged at 3000× g at room temperature for 10 min. The supernatants were evaporated to dryness under N2, reconstituted in 100 µL of methanol, and analyzed for the presence of polyphenols and their derivatives using liquid chromatography coupled with tandem mass spectrometry (LC/MS/MS) using a Quattro Premier system operating under MassLynx MS Software, v4.1 (Waters Corporation, Milford, MA, USA). […] Quantitation was performed by multiple reaction monitoring of the deprotonated precursor ion and the related product ion for these polyphenols using the internal standard method with peak area ratio [23]–[24]. Collision-induced dissociation was achieved using argon as the collision gas. Standard solutions of the polyphenol compounds (1 µg•mL^–1) were applied to optimize the detection conditions in the presence of mobile phase. […] The column temperature and flow rate were 25°C and 0.2 mL⋅min^–1, respectively.

rat small intestine = experiment: In situ intestinal perfusion model (isolated rat small intestine, luminal and vascular perfusion); format: in vivo
Method: The rats were anaesthetized with an intra-abdominal injection of a mixture containing 40 mg•kg^–1 sodium phenobarbital. The animals were then heparinized (90 U•kg^–1) via the vena caudalis. […] Briefly, a segment of intestine between 7 and 11 cm long was identified and separated and silicone tubing was placed inside both ends of the segment. The tube at the proximal side was connected to a peristaltic pump for luminal perfusion.

[5] = male, Sprague-Dawley, rat, plasma, po
[6] = male, Sprague-Dawley, rat, in vivo, po
[7] = 1500 nmol applied, perfusion 60 min
[8] = 1500 nmol applied, perfusion 60 min, mean ± SD, n = 3

| Intracellular accumulation / uptake in the presence of phloridzin (Caco-2 cells [1]) | Time of maximum intracellular accumulation (given as Cmax) (Caco-2 cells [1]) | Intracellular accumulation after pre-treatment with cyclosporine A (Caco-2 cells [1]) | Intracellular accumulation after pre-treatment with verapamil (Caco-2 cells [1]) | Permeability value BL to AP compared with AP to BL (Caco-2 cells [2]) | Papp A→B at 50 µM [3] | Papp B→A at 50 µM [3] | AUC [4, 5] | Cmax [4, 5] | K [4] | T1/2Ke [4] | Tpeak [4] | Total percentage of parent compound and metabolites, luminal side compared with vascular side (rat small intestine; rat, in vivo) | Luminal effluent, % of delivered dose (rat small intestine; rat, in vivo, 60 min) | SMILES | other results |
| --- | --- | --- | --- | --- | --- | --- | --- | --- | --- | --- | --- | --- | --- | --- | --- |
| no changes were observed | 10 min | clearly increased | clearly increased | no changes | 13.8 ± 1.21 ×10⁻⁶ cm/s | 12.9 ± 2.54 ×10⁻⁶ cm/s | 659 ± 25 ng·h/mL | 42 ± 2 ng/mL | 0.16±0.02 ^1 h^−1 | 2.11 ± 0.03 h | 0.50 ± 0.01 h | two- to three-fold greater | 53.87 ^2% | O=c1cc(-c2ccc(O)cc2)oc2cc(O)cc(O)c12 [Apigenin] | – |
| reduced the cellular uptake | 10 min | increased the uptake | increased the uptake | much greater (by a factor of two) | 10.8 ± 2.34 ×10⁻⁶ cm/s | 27.4 ± 4.19 ×10⁻⁶ cm/s | 1720 ± 57 ng·h/mL | 326 ± 18 ng/mL | 0.08 ± 0.01 h⁻¹ | 8.00 ± 0.28 h | 3.00 ± 0.01 h | no clear differences | 36.82 ^2% | Cc1cc(O)c2c(c1)C(=O)c1cccc(O)c1C2=O [Chrysophanol] | Vascular side, % of delivered dose (rat small intestine; rat, in vivo, 60 min): 32.22 ^2% |
| no changes were observed | increased in a time-dependent manner | clearly increased | clearly increased | lower | 11.3 ± 3.45 ×10⁻⁶ cm/s | 7.86 ± 2.67 ×10⁻⁶ cm/s | 98 ± 7 ng·h/mL | 157 ± 13 ng/mL | 0.38 ± 0.03 h⁻¹ | 1.82 ± 0.05 h | – | – | – | Oc1ccc(/C=C/c2cc(O)cc(O)c2)cc1 [Resveratrol] | Luminal effluent, % of delivered dose (rat small intestine; [7]): 35.37 ^2%; Vascular side, % of delivered dose (rat small intestine; [7]): 12.74 ^2%; Luminal effluent, amount (rat small intestine; [8]): 536 ± 27 nmol; Vascular side, amount (rat small intestine; [8]): 193 ± 11 nmol |

| SMILES | Intracellular accumulation / uptake in the presence of phloridzin (Caco-2 cells [1]) | Time of maximum intracellular accumulation (given as Cmax) (Caco-2 cells [1]) | Intracellular accumulation after pre-treatment with cyclosporine A (Caco-2 cells [1]) | Intracellular accumulation after pre-treatment with verapamil (Caco-2 cells [1]) | Permeability value BL to AP compared with AP to BL (Caco-2 cells [2]) | Papp A→B at 50 µM [3] | Papp B→A at 50 µM [3] | AUC [4, 5] | Cmax [4, 5] | K [4] | T1/2Ke [4] | Tpeak [4] | Total percentage of parent compound and metabolites, luminal side compared with vascular side (rat small intestine; rat, in vivo) | Luminal effluent, % of delivered dose (rat small intestine; rat, in vivo, 60 min) | other results |
| --- | --- | --- | --- | --- | --- | --- | --- | --- | --- | --- | --- | --- | --- | --- | --- |
| Cc1cc(O)c2c(c1)C(=O)c1cc(O)cc(O)c1C2=O [Emodin] | reduced the cellular uptake | 10 min | increased the uptake | increased the uptake | much greater (by a factor of two) | 9.52 ± 1.45 ×10⁻⁶ cm/s | 24.4 ± 3.22 ×10⁻⁶ cm/s | – | – | 0.23 ± 0.04 h⁻¹ | 2.93 ± 0.04 h | 0.50 ± 0.01 h | – | – | Plasma concentration of glucuronidated metabolites relative to sulphated metabolites [4, 6]: 10 fold; AUC [4, 6]: 809 ± 17 ng·h/mL; Cmax [4, 6]: 72 ± 6 ng/mL; Total percentage of parent compound and metabolites, luminal side compared with vascular side (rat small intestine; isolated intestine perfusion, estimated): two- to three-fold greater |
